According to patent US20260183295A1, “METHODS AND COMPOSITIONS FOR TREATING CANCER” (Onconova Therapeutics, Inc., priority 2022, published 2026):

How the values were obtained:
Type in all cases: cell-based
[1] = target: T1, AHCTF1 (Homo sapiens, UniProt Q8WYP5); assay: CETSA-MS, MDA-MB-231 intact cells; conditions: 2 μM and 20 μM
T1 construct: endogenous in cells; host or cells: MDA-MB-231
Protocol: (§1) TNBC MDA-MB-231 cells were grown at 37° C. in 5% CO2 and suspended in warm media and split into 4 equal volumes. […] Cells were incubated and then pelleted. Following pelleting, the cells were washed, resuspended, and heated in a thermal gradient. Following heating, the samples were flash frozen and lysed in lysis buffer, agitated by vortex, and sonicated prior to centrifugation. The supernatant was collected and denaturation buffer added. Cold acetone was then added to the cell samples, and protein collected by centrifugation. Pellets were then washed twice with cold acetone and the washed pellets prior to labeling.
(§2) The intact cell protein samples and lysate protein samples were then digested and labeled for mass spectrometry analysis according to the manufacturer's recommended protocols. Digested and labeled protein samples were analyzed by mass spectrometry proteomic analysis and the resulting protein targets were analyzed and plotted.

[2] = target: T2, AVEN (Homo sapiens, UniProt Q9NQS1); assay: CETSA-MS, MDA-MB-231 intact cells; conditions: 2 μM and 20 μM
T2 construct: endogenous in cells; host or cells: MDA-MB-231
Protocol: as §1, §2

[3] = target: T3, AXL (Homo sapiens, UniProt P30530); assay: CETSA-MS, MDA-MB-231 intact cells; conditions: 2 μM and 20 μM
T3 construct: endogenous in cells; host or cells: MDA-MB-231
Protocol: as §1, §2

[4] = target: T4, BOD1L1 (Homo sapiens, UniProt Q8NFC6); assay: CETSA-MS, MDA-MB-231 intact cells; conditions: 2 μM and 20 μM
T4 construct: endogenous in cells; host or cells: MDA-MB-231
Protocol: as §1, §2

[5] = target: T5, CAVIN3 (Homo sapiens, UniProt Q969G5); assay: CETSA-MS, MDA-MB-231 intact cells; conditions: 2 μM and 20 μM
T5 construct: endogenous in cells; host or cells: MDA-MB-231
Protocol: as §1, §2

[6] = target: T6, CDC5L (Homo sapiens, UniProt Q99459); assay: CETSA-MS, MDA-MB-231 intact cells; conditions: 2 μM and 20 μM
T6 construct: endogenous in cells; host or cells: MDA-MB-231
Protocol: as §1, §2

[7] = target: T7, CDKN1A (Homo sapiens, UniProt P38936); assay: CETSA-MS, MDA-MB-231 intact cells; conditions: 2 μM and 20 μM
T7 construct: endogenous in cells; host or cells: MDA-MB-231
Protocol: as §1, §2

[8] = target: T8, CERS2 (Homo sapiens, UniProt Q96G23); assay: CETSA-MS, MDA-MB-231 intact cells; conditions: 2 μM and 20 μM
T8 construct: endogenous in cells; host or cells: MDA-MB-231
Protocol: as §1, §2

[9] = target: T9, DBNDD2 (Homo sapiens, UniProt Q9BQY9); assay: CETSA-MS, MDA-MB-231 intact cells; conditions: 2 μM and 20 μM
T9 construct: 148 targets unique to Compound 1 in MDA-MB-231 intact cells; endogenous in cells; host or cells: MDA-MB-231
Protocol: as §1, §2

[10] = target: T10, DDX21 (Homo sapiens, UniProt Q9NR30); assay: CETSA-MS, MDA-MB-231 intact cells; conditions: 2 μM and 20 μM
T10 construct: 148 targets unique to Compound 1 in MDA-MB-231 intact cells; endogenous in cells; host or cells: MDA-MB-231
Protocol: as §1, §2

[11] = target: T11, DNAJC13 (Homo sapiens, UniProt O75165); assay: CETSA-MS, MDA-MB-231 intact cells; conditions: 2 μM and 20 μM
T11 construct: 148 targets unique to Compound 1 in MDA-MB-231 intact cells; endogenous in cells; host or cells: MDA-MB-231
Protocol: as §1, §2

[12] = target: T12, FOSB (Homo sapiens, UniProt P53539); assay: CETSA-MS, MDA-MB-231 intact cells; conditions: 2 μM and 20 μM
T12 construct: endogenous in cells; host or cells: MDA-MB-231
Protocol: as §1, §2

[13] = target: T13, FUBP3 (Homo sapiens, UniProt Q96I24); assay: CETSA-MS, MDA-MB-231 intact cells; conditions: 2 μM and 20 μM
T13 construct: 148 targets unique to Compound 1 in MDA-MB-231 intact cells; endogenous in cells; host or cells: MDA-MB-231
Protocol: as §1, §2

[14] = system: HNRNPU; assay: CETSA-MS, MDA-MB-231 intact cells; conditions: 2 μM and 20 μM
Protocol: as §1, §2

[15] = target: T14, INCENP (Homo sapiens, UniProt Q9NQS7); assay: CETSA-MS, MDA-MB-231 intact cells; conditions: 2 μM and 20 μM
T14 construct: endogenous in cells; host or cells: MDA-MB-231
Protocol: as §1, §2

[16] = target: T15, LAMA5 (Homo sapiens, UniProt O15230); assay: CETSA-MS, MDA-MB-231 intact cells; conditions: 2 μM and 20 μM
T15 construct: endogenous in cells; host or cells: MDA-MB-231
Protocol: as §1, §2

[17] = target: T16, LAMC1 (Homo sapiens, UniProt P11047); assay: CETSA-MS, MDA-MB-231 intact cells; conditions: 2 μM and 20 μM
T16 construct: endogenous in cells; host or cells: MDA-MB-231
Protocol: as §1, §2

[18] = target: T17, LEO1 (Homo sapiens, UniProt Q8WVC0); assay: CETSA-MS, MDA-MB-231 intact cells; conditions: 2 μM and 20 μM
T17 construct: endogenous in cells; host or cells: MDA-MB-231
Protocol: as §1, §2

[19] = target: T18, LMAN2 (Homo sapiens, UniProt Q12907); assay: CETSA-MS, MDA-MB-231 intact cells; conditions: 2 μM and 20 μM
T18 construct: endogenous in cells; host or cells: MDA-MB-231
Protocol: as §1, §2

[20] = target: T19, LRPPRC (Homo sapiens, UniProt P42704); assay: CETSA-MS, MDA-MB-231 intact cells; conditions: 2 μM and 20 μM
T19 construct: endogenous in cells; host or cells: MDA-MB-231
Protocol: as §1, §2

[21] = target: T20, NRP1 (Homo sapiens, UniProt O14786); assay: CETSA-MS, MDA-MB-231 intact cells; conditions: 2 μM and 20 μM
T20 construct: endogenous in cells; host or cells: MDA-MB-231
Protocol: as §1, §2

[22] = target: T21, PIK3C3 (Homo sapiens, UniProt Q8NEB9); assay: CETSA-MS, MDA-MB-231 intact cells; conditions: 2 μM and 20 μM
T21 construct: endogenous in cells; host or cells: MDA-MB-231
Protocol: as §1, §2

[23] = target: T22, PIP4K2A (Homo sapiens, UniProt P48426); assay: CETSA-MS, MDA-MB-231 intact cells; conditions: 2 μM and 20 μM
T22 construct: endogenous in cells; host or cells: MDA-MB-231
Protocol: as §1, §2

[24] = target: T23, SIK2 (Homo sapiens, UniProt Q9H0K1); assay: CETSA-MS, MDA-MB-231 intact cells; conditions: 2 μM and 20 μM
T23 construct: endogenous in cells; host or cells: MDA-MB-231
Protocol: as §1, §2

[25] = target: T24, SMAD1 (Homo sapiens, UniProt Q15797); assay: CETSA-MS, MDA-MB-231 intact cells; conditions: 2 μM and 20 μM
T24 construct: endogenous in cells; host or cells: MDA-MB-231
Protocol: as §1, §2

[26] = target: T25, SYNE2 (Homo sapiens, UniProt Q8WXH0); assay: CETSA-MS, MDA-MB-231 intact cells; conditions: 2 μM and 20 μM
T25 construct: endogenous in cells; host or cells: MDA-MB-231
Protocol: as §1, §2

[27] = target: T26, ZNF608 (Homo sapiens, UniProt Q9ULD9); assay: CETSA-MS, MDA-MB-231 intact cells; conditions: 2 μM and 20 μM
T26 construct: endogenous in cells; host or cells: MDA-MB-231
Protocol: as §1, §2

[28] = system: HCC-1937; assay: MTT cell viability, 48 hours; conditions: Homo sapiens, HCC1937, 48 h, HCC-1937 (TNBC), read-out: 48 h-cell viability decrease
Protocol: (§3) A panel of […] breast cancer cell lines: T-47D, BT-474, MDA-MB-453, MDA-MB-468, HCC-1937, Hs578T, and MDA-MB-231, was treated for 48 hours with 5 μM Compound 1 and the cell viability was measured using the MTT assay. TABLE 6 summarizes the cell lines, and the change in viability after 48 hours of treatment with Compound 1.

[29] = system: Hs578T; assay: MTT cell viability, 48 hours; conditions: Homo sapiens, Hs-578T, Hs578T (TNBC), read-out: 48 h-cell viability decrease
Protocol: as §3

[30] = system: MDA-MB-453; assay: MTT cell viability, 48 hours; conditions: Homo sapiens, MDA-MB-453 (TNBC), read-out: 48 h-cell viability decrease
Protocol: as §3

[31] = system: MDA-MB-468; assay: MTT cell viability, 48 hours; conditions: Homo sapiens, MDA-MB-468 (TNBC), read-out: 48 h-cell viability decrease
Protocol: as §3

[32] = system: T-47D; assay: MTT cell viability, 48 hours; conditions: Homo sapiens, T47D, T-47D (HR+ HER2−), read-out: 48 h-cell viability decrease
Protocol: as §3

T14 sequence (Q9NQS7 whole entry): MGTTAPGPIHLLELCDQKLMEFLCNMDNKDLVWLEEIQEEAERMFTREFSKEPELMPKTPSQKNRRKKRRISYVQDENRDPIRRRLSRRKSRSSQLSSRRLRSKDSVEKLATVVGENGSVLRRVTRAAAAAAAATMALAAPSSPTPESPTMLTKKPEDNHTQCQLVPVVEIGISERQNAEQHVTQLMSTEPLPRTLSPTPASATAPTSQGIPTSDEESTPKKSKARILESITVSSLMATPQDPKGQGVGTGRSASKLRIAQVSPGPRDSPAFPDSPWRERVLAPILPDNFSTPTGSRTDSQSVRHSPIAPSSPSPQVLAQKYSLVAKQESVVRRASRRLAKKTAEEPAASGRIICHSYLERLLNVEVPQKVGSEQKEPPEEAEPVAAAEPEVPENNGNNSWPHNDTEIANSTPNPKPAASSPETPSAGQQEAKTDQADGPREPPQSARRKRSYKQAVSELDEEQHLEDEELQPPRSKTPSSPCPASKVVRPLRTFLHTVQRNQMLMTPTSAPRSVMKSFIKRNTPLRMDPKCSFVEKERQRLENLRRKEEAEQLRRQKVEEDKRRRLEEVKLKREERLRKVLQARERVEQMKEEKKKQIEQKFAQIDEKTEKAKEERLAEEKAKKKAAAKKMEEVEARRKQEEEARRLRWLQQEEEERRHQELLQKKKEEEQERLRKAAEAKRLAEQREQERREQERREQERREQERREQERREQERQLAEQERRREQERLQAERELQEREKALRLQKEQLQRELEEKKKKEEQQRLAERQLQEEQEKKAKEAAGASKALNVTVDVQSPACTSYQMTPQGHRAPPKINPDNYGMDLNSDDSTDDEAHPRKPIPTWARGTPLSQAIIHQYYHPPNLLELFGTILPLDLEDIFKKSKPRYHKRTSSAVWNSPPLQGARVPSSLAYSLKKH
T13 sequence (Q96I24 whole entry): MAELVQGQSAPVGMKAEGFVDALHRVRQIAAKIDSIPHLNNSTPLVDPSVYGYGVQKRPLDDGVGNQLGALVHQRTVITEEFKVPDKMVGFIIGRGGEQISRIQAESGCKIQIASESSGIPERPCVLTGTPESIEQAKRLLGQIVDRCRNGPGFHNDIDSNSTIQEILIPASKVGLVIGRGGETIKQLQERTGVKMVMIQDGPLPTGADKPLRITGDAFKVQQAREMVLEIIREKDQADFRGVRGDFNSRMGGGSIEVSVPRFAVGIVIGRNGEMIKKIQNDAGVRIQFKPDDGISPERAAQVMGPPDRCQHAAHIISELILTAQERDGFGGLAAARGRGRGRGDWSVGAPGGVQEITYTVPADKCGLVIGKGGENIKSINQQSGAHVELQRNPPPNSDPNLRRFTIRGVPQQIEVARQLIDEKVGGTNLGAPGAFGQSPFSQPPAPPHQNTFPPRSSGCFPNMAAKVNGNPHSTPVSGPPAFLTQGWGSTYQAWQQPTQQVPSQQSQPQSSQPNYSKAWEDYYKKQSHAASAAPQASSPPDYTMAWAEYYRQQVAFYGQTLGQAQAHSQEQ
T9 sequence (Q9BQY9 whole entry): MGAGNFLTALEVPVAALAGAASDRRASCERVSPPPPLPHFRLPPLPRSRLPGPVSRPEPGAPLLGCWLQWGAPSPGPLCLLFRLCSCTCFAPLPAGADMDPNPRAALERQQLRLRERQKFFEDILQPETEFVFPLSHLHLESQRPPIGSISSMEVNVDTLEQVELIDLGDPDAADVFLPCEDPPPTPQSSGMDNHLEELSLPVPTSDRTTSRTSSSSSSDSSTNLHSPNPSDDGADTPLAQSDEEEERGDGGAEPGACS
T18 sequence (Q12907 45-356): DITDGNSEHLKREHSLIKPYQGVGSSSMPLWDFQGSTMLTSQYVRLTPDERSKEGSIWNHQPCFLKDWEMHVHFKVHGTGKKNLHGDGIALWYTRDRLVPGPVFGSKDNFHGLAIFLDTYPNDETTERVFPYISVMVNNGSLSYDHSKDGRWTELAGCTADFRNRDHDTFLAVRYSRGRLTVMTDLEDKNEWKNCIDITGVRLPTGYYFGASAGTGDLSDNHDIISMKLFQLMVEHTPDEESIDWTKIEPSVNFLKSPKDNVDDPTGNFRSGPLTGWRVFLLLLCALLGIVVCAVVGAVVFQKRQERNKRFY
T23 sequence (Q9H0K1 whole entry): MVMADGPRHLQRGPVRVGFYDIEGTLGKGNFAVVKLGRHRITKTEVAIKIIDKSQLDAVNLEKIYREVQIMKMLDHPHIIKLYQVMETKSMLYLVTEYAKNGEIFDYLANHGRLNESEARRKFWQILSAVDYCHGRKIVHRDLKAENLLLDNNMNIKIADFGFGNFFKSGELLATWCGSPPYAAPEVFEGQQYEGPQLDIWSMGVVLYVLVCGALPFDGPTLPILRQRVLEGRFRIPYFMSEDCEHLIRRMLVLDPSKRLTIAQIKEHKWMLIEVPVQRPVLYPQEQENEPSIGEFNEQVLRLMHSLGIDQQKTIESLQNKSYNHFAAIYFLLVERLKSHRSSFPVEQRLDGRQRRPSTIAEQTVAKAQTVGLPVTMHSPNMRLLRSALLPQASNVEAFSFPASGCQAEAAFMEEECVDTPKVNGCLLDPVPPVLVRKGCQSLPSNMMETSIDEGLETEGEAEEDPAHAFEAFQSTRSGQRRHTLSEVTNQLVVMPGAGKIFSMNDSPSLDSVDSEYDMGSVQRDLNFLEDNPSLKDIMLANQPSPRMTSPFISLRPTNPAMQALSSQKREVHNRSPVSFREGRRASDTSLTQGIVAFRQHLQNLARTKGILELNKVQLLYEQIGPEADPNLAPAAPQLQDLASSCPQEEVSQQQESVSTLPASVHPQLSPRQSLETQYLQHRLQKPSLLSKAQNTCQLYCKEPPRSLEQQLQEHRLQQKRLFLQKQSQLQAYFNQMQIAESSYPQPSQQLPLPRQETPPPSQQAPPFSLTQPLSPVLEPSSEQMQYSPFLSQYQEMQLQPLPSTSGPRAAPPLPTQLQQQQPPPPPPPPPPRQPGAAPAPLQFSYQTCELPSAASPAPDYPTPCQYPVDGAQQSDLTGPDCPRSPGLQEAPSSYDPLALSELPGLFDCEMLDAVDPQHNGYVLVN
T7 sequence (P38936 whole entry): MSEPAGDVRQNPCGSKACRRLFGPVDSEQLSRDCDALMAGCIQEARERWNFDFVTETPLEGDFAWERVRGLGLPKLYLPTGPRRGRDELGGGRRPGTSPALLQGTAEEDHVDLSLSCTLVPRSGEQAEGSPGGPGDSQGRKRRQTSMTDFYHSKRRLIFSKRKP
T12 sequence (P53539 whole entry): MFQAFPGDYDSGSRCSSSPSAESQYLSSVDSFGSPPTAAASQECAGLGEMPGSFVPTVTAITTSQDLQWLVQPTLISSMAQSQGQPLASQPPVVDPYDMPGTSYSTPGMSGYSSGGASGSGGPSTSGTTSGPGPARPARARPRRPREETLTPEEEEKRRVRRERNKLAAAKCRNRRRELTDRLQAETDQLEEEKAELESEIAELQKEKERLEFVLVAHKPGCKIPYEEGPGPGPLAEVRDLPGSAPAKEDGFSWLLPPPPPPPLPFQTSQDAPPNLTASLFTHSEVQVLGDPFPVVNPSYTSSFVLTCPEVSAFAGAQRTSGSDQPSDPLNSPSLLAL
T26 sequence (Q9ULD9 whole entry): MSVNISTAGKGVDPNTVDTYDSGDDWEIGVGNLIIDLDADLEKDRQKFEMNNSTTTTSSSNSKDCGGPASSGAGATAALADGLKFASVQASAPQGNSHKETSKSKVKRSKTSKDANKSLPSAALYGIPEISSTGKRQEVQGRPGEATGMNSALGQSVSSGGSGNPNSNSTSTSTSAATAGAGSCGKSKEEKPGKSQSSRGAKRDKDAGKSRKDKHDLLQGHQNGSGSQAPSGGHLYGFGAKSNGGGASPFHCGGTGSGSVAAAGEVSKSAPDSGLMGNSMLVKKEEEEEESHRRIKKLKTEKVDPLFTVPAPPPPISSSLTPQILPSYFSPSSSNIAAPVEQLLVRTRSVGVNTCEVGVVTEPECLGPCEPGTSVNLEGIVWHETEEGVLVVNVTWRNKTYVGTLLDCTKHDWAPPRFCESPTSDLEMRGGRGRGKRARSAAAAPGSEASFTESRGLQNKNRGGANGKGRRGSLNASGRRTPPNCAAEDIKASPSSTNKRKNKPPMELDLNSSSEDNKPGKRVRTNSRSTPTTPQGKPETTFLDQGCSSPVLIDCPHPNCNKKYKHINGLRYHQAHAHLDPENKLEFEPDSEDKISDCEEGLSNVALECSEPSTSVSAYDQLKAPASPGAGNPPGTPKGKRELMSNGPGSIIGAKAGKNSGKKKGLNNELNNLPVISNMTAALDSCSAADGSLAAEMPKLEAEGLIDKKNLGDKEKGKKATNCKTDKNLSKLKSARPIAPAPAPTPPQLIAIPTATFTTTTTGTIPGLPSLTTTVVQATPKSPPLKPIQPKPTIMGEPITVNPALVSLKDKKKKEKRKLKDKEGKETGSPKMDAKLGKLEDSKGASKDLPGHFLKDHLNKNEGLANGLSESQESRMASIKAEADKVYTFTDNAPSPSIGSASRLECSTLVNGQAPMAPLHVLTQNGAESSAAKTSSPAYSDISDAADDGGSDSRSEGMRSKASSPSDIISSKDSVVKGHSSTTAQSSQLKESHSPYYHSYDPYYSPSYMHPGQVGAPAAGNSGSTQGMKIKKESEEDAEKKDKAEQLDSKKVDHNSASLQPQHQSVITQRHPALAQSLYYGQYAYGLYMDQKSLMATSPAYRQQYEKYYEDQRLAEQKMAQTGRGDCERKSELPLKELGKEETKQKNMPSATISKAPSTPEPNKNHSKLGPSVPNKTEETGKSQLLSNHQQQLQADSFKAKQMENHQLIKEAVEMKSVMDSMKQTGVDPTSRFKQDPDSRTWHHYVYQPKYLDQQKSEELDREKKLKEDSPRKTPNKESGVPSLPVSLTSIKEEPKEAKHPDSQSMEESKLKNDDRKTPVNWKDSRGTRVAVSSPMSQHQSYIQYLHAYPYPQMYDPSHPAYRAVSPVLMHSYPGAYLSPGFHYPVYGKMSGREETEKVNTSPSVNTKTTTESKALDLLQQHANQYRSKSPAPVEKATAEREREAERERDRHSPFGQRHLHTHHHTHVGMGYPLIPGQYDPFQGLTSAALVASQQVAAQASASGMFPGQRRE

CN1CCN(c2ccc(Nc3ncc4cc(C#N)c(=O)n(C5CCCC5)c4n3)cc2)CC1 [Compound 1, 8-cyclopentyl-2-((4-(4-methylpiperazin-1-yl)phenyl)amino)-7-oxo-7,8-dihydropyrido[2,3-d]pyrimidine-6-carbonitrile]
Group (CETSA-MS thermal shift) [1]: Stabilization
Group (CETSA-MS thermal shift) [2]: Destabilization
Group (CETSA-MS thermal shift) [3]: Stabilization
Group (CETSA-MS thermal shift) [4]: Destabilization
Group (CETSA-MS thermal shift) [5]: Stabilization
Group (CETSA-MS thermal shift) [6]: Stabilization
Group (CETSA-MS thermal shift) [7]: Destabilization
Group (CETSA-MS thermal shift) [8]: Stabilization
Group (CETSA-MS thermal shift) [9]: Stabilization
Group (CETSA-MS thermal shift) [10]: Stabilization
Group (CETSA-MS thermal shift) [11]: Stabilization
Group (CETSA-MS thermal shift) [12]: Destabilization
Group (CETSA-MS thermal shift) [13]: Stabilization
Group (CETSA-MS thermal shift) [14]: Stabilization
Group (CETSA-MS thermal shift) [15]: Stabilization
Group (CETSA-MS thermal shift) [16]: Stabilization
Group (CETSA-MS thermal shift) [17]: Stabilization
Group (CETSA-MS thermal shift) [18]: Stabilization
Group (CETSA-MS thermal shift) [19]: Stabilization
Group (CETSA-MS thermal shift) [20]: Stabilization
Group (CETSA-MS thermal shift) [21]: Stabilization
Group (CETSA-MS thermal shift) [22]: Stabilization
Group (CETSA-MS thermal shift) [23]: Stabilization
Group (CETSA-MS thermal shift) [24]: Stabilization
Group (CETSA-MS thermal shift) [25]: Destabilization
Group (CETSA-MS thermal shift) [26]: Stabilization
Group (CETSA-MS thermal shift) [27]: Destabilization
cytotoxicity at 5 µM [28]: 20%
cytotoxicity at 5 µM [29]: 40%
cytotoxicity at 5 µM [30]: 50%
cytotoxicity at 5 µM [31]: 65%
cytotoxicity at 5 µM [32]: 60%
